Experimental findings from article PMC7996328, “Design, Synthesis, and Biological Evaluation of a Series of 5- and 7-Hydroxycoumarin Derivatives as 5-HT1A Serotonin Receptor Antagonists” (Pharmaceuticals, 2021) are described below.

One data set concerns the target T1, 5-HT1A receptor (Rattus norvegicus, UniProt P19327).
T1 construct: Hippocampal homogenates (15 μg/mL) were added to each tube as the 5-HT1A receptor source; from tissue; host or cells: rat hippocampus (male Sprague-Dawley), membrane homogenate
T1 sequence (P19327 1-422): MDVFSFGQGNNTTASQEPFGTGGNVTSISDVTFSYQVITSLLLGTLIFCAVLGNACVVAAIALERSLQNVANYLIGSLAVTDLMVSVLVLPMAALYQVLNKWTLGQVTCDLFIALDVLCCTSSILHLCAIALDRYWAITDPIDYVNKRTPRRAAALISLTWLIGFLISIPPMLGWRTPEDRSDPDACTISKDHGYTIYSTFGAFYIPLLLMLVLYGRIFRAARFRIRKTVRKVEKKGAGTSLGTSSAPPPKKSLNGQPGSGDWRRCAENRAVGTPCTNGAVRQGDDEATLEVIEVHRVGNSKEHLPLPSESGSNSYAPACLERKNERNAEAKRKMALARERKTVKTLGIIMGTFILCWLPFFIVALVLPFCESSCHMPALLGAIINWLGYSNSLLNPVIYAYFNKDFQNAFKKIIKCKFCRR
Briefly: Antagonist activity for the 5-HT1A receptor, [35S]GTPγS assay in hippocampal homogenates. The class given is biochemical. To be noted: 8-OH-DPAT 1.4 × 10^−7 M, mean ± SEM. The procedure:
Male Sprague–Dawley rats were decapitated, their brains removed, and placed on ice. Hippocampi were dissected and homogenized with a glass homogenizer in 30 vol. ice-cold TED buffer (50 mM Tris-HCl, 1 mM EDTA, 1mM dithiotheritol, pH 7.4). Next, the homogenate was centrifuged at 21,000× g for 30 min at 4 °C. […] The suspension was centrifuged again at 21,000× g for 30 min at 4 °C. The pellet was resuspended in 30 vol. TED buffer (pH 7.4) and the centrifugation step was repeated. The final pellet was suspended in 10 vol 50 mM Tris-HCl (pH 7.4) and stored at −80 °C until use.
Serial dilutions of the compounds tested (10^−10–10^−5 M) were incubated in triplicate with 0.8 nM [^35S]GTPγS in assay buffer (50 mM Tris-HCl, pH = 7.4, 1 mM EGTA, 3 mM MgCl2, 100 mM NaCl, 30 µM GDP) and 8-OH-DPAT (final concentration 1.4 × 10^−7 M) in the final assay volume of 250 µL. Hippocampal homogenates (15 μg/mL) were added to each tube as the 5-HT1A receptor source. […] Non-specific binding was determined with 10 µM of unlabeled GTPγS. […] Next, 96-well Unifilter® Plates (Perkin Elmer, Waltham, MA, USA) were presoaked for 1 h with 50 mM Tris-HCl (pH = 7.4) before harvesting. The reaction was terminated by vacuum filtration onto filter plates with the FilterMate Harvester® (Perkin Elmer, Waltham, MA, USA). The samples were then rapidly washed with 2 mL of 50 mM Tris-HCl (pH = 7.4) buffer. Filter plates were dried for 2 h at 50 °C. After drying, 45 µL of EcoScint-20 scintillant (Perkin Elmer) was added to every well. Radioactivity was counted in a Trilux MicroBeta^2 counter (Perkin Elmer). Data were analyzed with GraphPad Prism 5.0 software (GraphPad Software, San Diego, CA, USA, www.graphpad.com). Curves were fitted with a one-site non-linear regression model. Efficacy (Emax) and half maximal inhibitory concentration (IC50) were calculated from the Cheng–Prusoff equation and expressed as means ± SEM.
On the technique in general: GTPγS resists hydrolysis and so accumulates on activated G proteins.

Another data set concerns the target T2, 5-HT2A receptor (Rattus norvegicus, UniProt P14842).
T2 construct: from tissue; host or cells: rat frontal cortex (male SD), membrane homogenate
The data set is described as follows: 5-HT2A competition binding assay, [3H]ketanserin, frontal cortex homogenates. The settings on record: [3H]ketanserin 1 nM. As to the method: Male SD rats were decapitated and their brains removed and placed on ice. Frontal cortices were homogenized with a glass homogenizer in 30 vol ice-cold homogenization buffer (50 mM Tris-HCl. 1 mM EDTA. 5 mM MgCl2. pH 7.4). Next, the homogenate was centrifuged at 20,000× g for 15 min at 4 °C. […] The suspension was again centrifuged at 20,000× g for 15 min at 4 °C. The pellet was resuspended in 10 vol. 50 mM Tris-HCl (pH 7.4) and the centrifugation step was repeated. The final pellet was suspended in 10 vol 50 mM Tris-HCl (pH 7.4) and stored at −80 °C.
Non-specific binding was determined in the presence of 10 μM mianserin. After incubation, the reaction mixture was deposited onto UniFilter-96 GF/B plates with the aid of a FilterMate-96 Harvester. Filter plates were presoaked beforehand with 0.4% PEI for 1 h. Next, each filter well was washed with 1.75 mL of 50 mM Tris-HCl (pH 7.4) and left to dry on a heating block set to 50 °C for 2 h. Then 45 µL of Microscint-20 scintillation fluid was added to each filter well and left to equilibrate overnight. Filter-bound radioactivity was counted in a MicroBeta^2 Microplate Counter. Binding curves were fitted with one site non-linear regression. Affinity was presented as the inhibitory constant (pKi ± SEM and Ki ± SEM) from two or three separate experiments.

[1] abbreviates: read-out: Ki (nM ± SEM) (converted).
Where [2] appears, read: read-out: pKi (M ± SEM) (converted).

“Also recorded” adds a separate entry of the source. Read-outs that look alike come from different tables or passages of the source.

T2 sequence (P14842 whole entry): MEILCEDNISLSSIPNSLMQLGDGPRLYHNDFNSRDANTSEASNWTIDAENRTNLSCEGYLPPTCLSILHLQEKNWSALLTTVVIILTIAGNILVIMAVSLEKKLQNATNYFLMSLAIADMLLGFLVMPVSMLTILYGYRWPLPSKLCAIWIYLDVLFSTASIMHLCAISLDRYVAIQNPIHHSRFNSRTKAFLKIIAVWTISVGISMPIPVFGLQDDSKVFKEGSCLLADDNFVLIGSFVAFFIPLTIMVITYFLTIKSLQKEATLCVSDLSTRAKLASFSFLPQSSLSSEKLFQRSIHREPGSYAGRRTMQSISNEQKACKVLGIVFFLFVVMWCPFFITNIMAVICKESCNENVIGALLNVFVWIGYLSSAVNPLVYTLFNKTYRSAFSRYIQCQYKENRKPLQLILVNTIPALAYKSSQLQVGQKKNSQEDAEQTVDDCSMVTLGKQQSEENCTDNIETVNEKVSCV

Turning to `Cc1cc(OCCCCCBr)c2c(C)cc(=O)oc2c1` [Compound 1, 5-(5-bromopentyloxy)-4,7-dimethyl-2H-chromen-2-one], the melting point – broadly, the temperature of the solid-liquid transition – lay in the range of 99 to 101 °C.
`COc1ccccc1N1CCN(CCCCCOc2cc(C)cc3oc(=O)cc(C)c23)CC1` [Compound 1a, 5-(5-(4-(2-methoxyphenyl)piperazin-1-yl)pentyloxy)-4,7-dimethyl-2H-chromen-2-one] showed a melting point of 66 to 68 °C. In addition, at 5-HT1A receptor, it took 31.6 nM to reach half-maximal inhibition (IC50). For the same compound, the EC50 – broadly, the concentration that produces a half-maximal response – at 5-HT1A receptor (antagonistic activity) came out at 29.4 ± 7.3 nM. Also, the Ki at 5-HT2A receptor (setting [1]) is 776 ± 187 nM. For the same compound, the Ki on 5-HT2A receptor (setting [2]) was 644 nM.
Compound `Cc1cc(OCCCCCN2CCN(c3ccccc3F)CC2)c2c(C)cc(=O)oc2c1` [Compound 1b, 5-(5-(4-(2-fluorophenyl)piperazin-1-yl)pentyloxy)-4,7-dimethyl-2H-chromen-2-one] yielded a melting point of 106 to 108 °C. Also, the IC50 (commonly the point on the concentration scale where inhibition reaches its midpoint) at 5-HT1A receptor was 1000 nM. Further, the EC50 on 5-HT1A receptor (antagonistic activity) came to 980 ± 207 nM. Further, the Ki on 5-HT2A receptor (setting [1]) was 1260 ± 479 nM.
On the same counts, the results for `COc1cccc(N2CCN(CCCCCOc3cc(C)cc4oc(=O)cc(C)c34)CC2)c1` [Compound 1c, 5-(5-(4-(3-methoxyphenyl)piperazin-1-yl)pentyloxy)-4,7-dimethyl-2H-chromen-2-one] are 103 to 105 °C, 1580 nM, 1700 ± 358 nM and 610 ± 139 nM.
For `Cc1cc(OCCCCCN2CCN(c3cccc(F)c3)CC2)c2c(C)cc(=O)oc2c1` [Compound 1e, 5-(5-(4-(3-fluorophenyl)piperazin-1-yl)pentyloxy)-4,7-dimethyl-2H-chromen-2-one], in that order: 101 to 102 °C, 25100 nM, 24300 nM and 2350 ± 673 nM.
On the same counts, the results for `Cc1cc(OCCCCCN2CCN(c3ccccc3Br)CC2)c2c(C)cc(=O)oc2c1` [Compound 1f, 5-(5-(4-(2-bromophenyl)piperazin-1-yl)pentyloxy)-4,7-dimethyl-2H-chromen-2-one] are 143 to 144 °C, 20000 nM, 20900 nM and 1550 ± 323 nM.
As to `Cc1cc(C)cc(N2CCN(CCCCCOc3cc(C)cc4oc(=O)cc(C)c34)CC2)c1` [Compound 1h, 5-(5-(4-(3,5-dimethylphenyl)piperazin-1-yl)pentyloxy)-4,7-dimethyl-2H-chromen-2-one], the melting point lay within 104 to 106 °C. The compound also gave an IC50 against 5-HT1A receptor of 200000 nM. Further, on 5-HT1A receptor (antagonistic activity), the EC50 was 198000 nM. The Ki on 5-HT2A receptor (setting [1]) was 1820 ± 636 nM.
For `Cc1cc(OCCCCCN2CCN(c3cccc(Cl)c3Cl)CC2)c2c(C)cc(=O)oc2c1` [Compound 1i, 5-(5-(4-(2,3-dichlorophenyl)piperazin-1-yl)pentyloxy)-4,7-dimethyl-2H-chromen-2-one], in that order: 162 to 163 °C, 15800 nM, 13700 nM and 1450 ± 653 nM.
For `Cc1cc(OCCCCCN2CCN(c3ccccc3C#N)CC2)c2c(C)cc(=O)oc2c1` [Compound 1j, 5-(5-(4-(2-cyanophenyl)piperazin-1-yl)pentyloxy)-4,7-dimethyl-2H-chromen-2-one], in that order: 148 to 149 °C, 79400 nM, 74700 nM and 79 ± 18 nM.
In turn, `Cc1cc(OCCBr)c2c(C)cc(=O)oc2c1` [Compound 2, 5-(2-bromoethoxy)-4,7-dimethyl-2H-chromen-2-one] gave a melting point of 121 to 123 °C.
The compound `COc1ccccc1N1CCN(CCOc2cc(C)cc3oc(=O)cc(C)c23)CC1` [Compound 2a, 5-(2-(4-(2-methoxyphenyl)piperazin-1-yl)ethoxy)-4,7-dimethyl-2H-chromen-2-one] came in with a melting point of 146 to 148 °C. This compound also showed an IC50 at 5-HT1A receptor of 2000 nM. This compound also gave an EC50 on 5-HT1A receptor (antagonistic activity) of 1880 ± 427 nM. Moreover, the Ki at 5-HT2A receptor (setting [1]) was 1710 ± 582 nM.
In turn, `Cc1cc(OCCN2CCN(c3ccccc3F)CC2)c2c(C)cc(=O)oc2c1` [Compound 2b, 5-(2-(4-(2-fluorophenyl)piperazin-1-yl)ethoxy)-4,7-dimethyl-2H-chromen-2-one] displayed a melting point of 121 to 123 °C. Further, the “pIC50 ± SEM” value on 5-HT1A receptor is listed as “no activity”. Moreover, the “EC50 (nM ± SEM)” value at 5-HT1A receptor (antagonistic activity) is recorded as “did not show any activity; also recorded: no activity”. For the same compound, the Ki on 5-HT2A receptor (setting [1]) is 2130 ± 662 nM.
`COc1cccc(N2CCN(CCOc3cc(C)cc4oc(=O)cc(C)c34)CC2)c1` [Compound 2c, 5-(2-(4-(3-methoxyphenyl)piperazin-1-yl)ethoxy)-4,7-dimethyl-2H-chromen-2-one] showed a melting point of 124 to 125 °C. The same compound gave an IC50 against 5-HT1A receptor of 20000 nM. Besides, the EC50 at 5-HT1A receptor (antagonistic activity) stood at 19100 nM. Moreover, the Ki at 5-HT2A receptor (setting [1]) was 458 ± 109 nM. For the same compound, the Ki on 5-HT2A receptor (setting [2]) was 468 nM.
The compound `CC(=O)c1c(C)cc2oc(=O)cc(C)c2c1OCCCCCBr` [Compound 3, 6-acetyl-5-(5-bromopentyloxy)-4,7-dimethyl-2H-chromen-2-one] registered a melting point of 78 to 80 °C.
Consider `COc1ccccc1N1CCN(CCCCCOc2c(C(C)=O)c(C)cc3oc(=O)cc(C)c23)CC1` [Compound 3a, 6-acetyl-5-(5-(4-(2-methoxyphenyl)piperazin-1-yl)pentyloxy)-4,7-dimethyl-2H-chromen-2-one], for which, at 5-HT1A receptor, the IC50 was 39.8 nM. For the same compound, the EC50 at 5-HT1A receptor (antagonistic activity) amounted to 39.4 ± 3.63 nM. Also, the Ki at 5-HT2A receptor (setting [1]) was 641 ± 128 nM.
`CC(=O)c1c(C)cc2oc(=O)cc(C)c2c1OCCBr` [Compound 4, 6-acetyl-5-(2-bromoethoxy)-4,7-dimethyl-2H-chromen-2-one] gave a melting point of 168 to 169 °C.
As to `CC(=O)c1c(C)cc2oc(=O)cc(C)c2c1OCCN1CCN(c2cc(C)ccc2C)CC1` [Compound 4d, 6-acetyl-5-(2-(4-(2,5-dimethylphenyl)piperazin-1-yl)ethoxy)-4,7-dimethyl-2H-chromen-2-one], half-maximal inhibition against 5-HT1A receptor (IC50) required 79400 nM. The compound also displayed an EC50 at 5-HT1A receptor (antagonistic activity) of 74700 nM. Further, on 5-HT2A receptor (setting [1]), the Ki is 11900 nM.
For `CC(=O)c1c(C)cc2oc(=O)cc(C)c2c1OCCN1CCN(c2cc(C)cc(C)c2)CC1` [Compound 4h, 6-acetyl-5-(2-(4-(3,5-dimethylphenyl)piperazin-1-yl)ethoxy)-4,7-dimethyl-2H-chromen-2-one], in that order: 39800 nM, 26800 nM and 1920 ± 382 nM.
For `COc1cccc(N2CCN(CCCCCOc3ccc4c(C)cc(=O)oc4c3C(C)=O)CC2)c1` [Compound 5c, 8-acetyl-7-(5-[4-(3-methoxyphenyl)piperazin-1-yl]penthoxy)-4-methylchromen-2-one], in that order: 25100 nM, 22900 nM and 144 ± 38 nM.
Regarding `CC(=O)c1c(OCCBr)ccc2c(C)cc(=O)oc12` [Compound 6, 8-acetyl-7-(2-bromoethoxy)-4-methylchromen-2-one], the melting point lay within 140 to 142 °C.
